Test results reported in patent US6689773B2, “Uracil substituted phenyl sulfamoyl carboxamides” (BASF Aktiengesellschaft, priority 2000, dated 2004).

Assays:
Assay type in all cases: in vivo
[1] = system: ABUTH, Velvetleaf, Abutilon theophrasti, Medic.; experiment: Postemergence herbicidal evaluation (Example 147); conditions: rating scale 0-9, two to three weeks after treatment
How it was run: (§1)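 Compound is applied postemergence at approximately 0.016–0.032 kg/ha through a nozzle at 40 psi, using 80/20 acetone/water with 1.0% SUN-IT II. Treated seedlings, grown about two weeks beforehand, stay in the greenhouse for two to three weeks before visual 0-9 scoring.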

[2] = system: ALOMY, Blackgrass, Alopecurus myosuroides; experiment: Postemergence herbicidal evaluation (Example 147); conditions: rating scale 0-9, two to three weeks after treatment
How it was run: as §1

[3] = system: AMBEL, Ragweed, Common, Ambrosia artemiisifolia, L.; experiment: Postemergence herbicidal evaluation (Example 147); conditions: rating scale 0-9, two to three weeks after treatment
How it was run: as §1

[4] = system: CHEAL, Lambsquarters, Chenopodium album, L. Common; experiment: Postemergence herbicidal evaluation (Example 147); conditions: rating scale 0-9, two to three weeks after treatment
How it was run: as §1

[5] = system: DIGSA, Crabgrass, (Hairy) L, Digitaria sanguinalis, (L)Scop; experiment: Postemergence herbicidal evaluation (Example 147); conditions: rating scale 0-9, two to three weeks after treatment
How it was run: as §1

[6] = system: ECHCG, Barnyardgrass, Echinochloa crusgalli, (L.)Beau; experiment: Postemergence herbicidal evaluation (Example 147); conditions: rating scale 0-9, two to three weeks after treatment
How it was run: as §1

[7] = system: GLXMA, Soybean, Glycine max, (L.) Merr.; experiment: Postemergence herbicidal evaluation (Example 147); conditions: rating scale 0-9, two to three weeks after treatment
How it was run: as §1

[8] = system: IPOHE, Morningglory, Ivyleaf, Ipomoea hederacea, (L)Jacq.; experiment: Postemergence herbicidal evaluation (Example 147); conditions: rating scale 0-9, two to three weeks after treatment
How it was run: as §1

[9] = system: SETVI, Green foxtail, Setaria viridis, (L.)Beau; experiment: Postemergence herbicidal evaluation (Example 147); conditions: rating scale 0-9, two to three weeks after treatment
How it was run: as §1

[10] = system: TRZAW, Winter wheat, Tritium Aestivum, L. (Winter); experiment: Postemergence herbicidal evaluation (Example 147); conditions: rating scale 0-9, two to three weeks after treatment
How it was run: as §1

[11] = system: XANST, Cocklebur, Xanthium strumariam; experiment: Postemergence herbicidal evaluation (Example 147); conditions: rating scale 0-9, two to three weeks after treatment
How it was run: as §1

[12] = system: ZEAMX, Field corn, Zea mays L.; experiment: Postemergence herbicidal evaluation (Example 147); conditions: rating scale 0-9, two to three weeks after treatment
How it was run: as §1

[13] = system: ABUTH, Velvetleaf, Abutilon theophrasti, Medic.; experiment: Preemergence herbicidal evaluation (Example 148); conditions: rating scale 0-9, two to four weeks after treatment
How it was run: (§2)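 Seeds mixed with potting soil were sown on about one inch of soil in cups, then sprayed preemergence with test compound in aqueous acetone at roughly 0.125 to 0.250 kg per hectare. Plants were grown in the greenhouse and rated visually 2–4 weeks later against a control.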

[14] = system: ALOMY, Blackgrass, Alopecurus myosuroides; experiment: Preemergence herbicidal evaluation (Example 148); conditions: rating scale 0-9, two to four weeks after treatment
How it was run: as §2

[15] = system: AMBEL, Ragweed, Common, Ambrosia artemiisifolia, L.; experiment: Preemergence herbicidal evaluation (Example 148); conditions: rating scale 0-9, two to four weeks after treatment
How it was run: as §2

[16] = system: CHEAL, Lambsquarters, Chenopodium album, L. Common; experiment: Preemergence herbicidal evaluation (Example 148); conditions: rating scale 0-9, two to four weeks after treatment
How it was run: as §2

[17] = system: DIGSA, Crabgrass, (Hairy) L, Digitaria sanguinalis, (L)Scop; experiment: Preemergence herbicidal evaluation (Example 148); conditions: rating scale 0-9, two to four weeks after treatment
How it was run: as §2

[18] = system: ECHCG, Barnyardgrass, Echinochloa crusgalli, (L.)Beau; experiment: Preemergence herbicidal evaluation (Example 148); conditions: rating scale 0-9, two to four weeks after treatment
How it was run: as §2

[19] = system: GLXMA, Soybean, Glycine max, (L.) Merr.; experiment: Preemergence herbicidal evaluation (Example 148); conditions: rating scale 0-9, two to four weeks after treatment
How it was run: as §2

[20] = system: IPOHE, Morningglory, Ivyleaf, Ipomoea hederacea, (L)Jacq.; experiment: Preemergence herbicidal evaluation (Example 148); conditions: rating scale 0-9, two to four weeks after treatment
How it was run: as §2

[21] = system: SETVI, Green foxtail, Setaria viridis, (L.)Beau; experiment: Preemergence herbicidal evaluation (Example 148); conditions: rating scale 0-9, two to four weeks after treatment
How it was run: as §2

[22] = system: TRZAW, Winter wheat, Tritium Aestivum, L. (Winter); experiment: Preemergence herbicidal evaluation (Example 148); conditions: rating scale 0-9, two to four weeks after treatment
How it was run: as §2

[23] = system: XANST, Cocklebur, Xanthium strumariam; experiment: Preemergence herbicidal evaluation (Example 148); conditions: rating scale 0-9, two to four weeks after treatment
How it was run: as §2

[24] = system: ZEAMX, Field corn, Zea mays L.; experiment: Preemergence herbicidal evaluation (Example 148); conditions: rating scale 0-9, two to four weeks after treatment
How it was run: as §2

## Cn1c(C(F)(F)F)cc(=O)n(-c2cc(C(=O)NS(=O)(=O)NC3CCCC3)c(Cl)cc2F)c1=O [Example 78]
[1]; rate 0.016 kg/ha
  Postemergence herbicidal rating ABUTH: 9.0
[1]; rate 0.032 kg/ha
  Postemergence herbicidal rating ABUTH: 9.0
[2]; rate 0.016 kg/ha
  Postemergence herbicidal rating ALMOY: 2.0
[2]; rate 0.032 kg/ha
  Postemergence herbicidal rating ALMOY: 2.0
[3]; rate 0.016 kg/ha
  Postemergence herbicidal rating AMBEL: 9.0
[3]; rate 0.032 kg/ha
  Postemergence herbicidal rating AMBEL: 9.0
[4]; rate 0.016 kg/ha
  Postemergence herbicidal rating CHEAL: 7.0
[4]; rate 0.032 kg/ha
  Postemergence herbicidal rating CHEAL: 9.0
[5]; rate 0.016 kg/ha
  Postemergence herbicidal rating DIGSA: 5.0
[5]; rate 0.032 kg/ha
  Postemergence herbicidal rating DIGSA: 6.0
[6]; rate 0.016 kg/ha
  Postemergence herbicidal rating ECHCG: 8.0
[6]; rate 0.032 kg/ha
  Postemergence herbicidal rating ECHCG: 9.0
[7]; rate 0.016 kg/ha
  Postemergence herbicidal rating GLXMA: 7.0
[7]; rate 0.032 kg/ha
  Postemergence herbicidal rating GLXMA: 8.0
[8]; rate 0.016 kg/ha
  Postemergence herbicidal rating IPOHE: 9.0
[8]; rate 0.032 kg/ha
  Postemergence herbicidal rating IPOHE: 9.0
[9]; rate 0.016 kg/ha
  Postemergence herbicidal rating SETVI: 8.0
[9]; rate 0.032 kg/ha
  Postemergence herbicidal rating SETVI: 9.0
[10]; rate 0.016 kg/ha
  Postemergence herbicidal rating TRZAW: 5.5
[10]; rate 0.032 kg/ha
  Postemergence herbicidal rating TRZAW: 6.5
[11]; rate 0.016 kg/ha
  Postemergence herbicidal rating XANST: 9.0
[11]; rate 0.032 kg/ha
  Postemergence herbicidal rating XANST: 9.0
[12]; rate 0.016 kg/ha
  Postemergence herbicidal rating ZEAMX: 6.5
[12]; rate 0.032 kg/ha
  Postemergence herbicidal rating ZEAMX: 7.0
[13]; rate 0.125 kg/ha
  Preemergence herbicidal rating ABUTH: 9.0
[13]; rate 0.25 kg/ha
  Preemergence herbicidal rating ABUTH: 9.0
[14]; rate 0.125 kg/ha
  Preemergence herbicidal rating ALMOY: 1.0
[14]; rate 0.25 kg/ha
  Preemergence herbicidal rating ALMOY: 2.0
[15]; rate 0.125 kg/ha
  Preemergence herbicidal rating AMBEL: 9.0
[15]; rate 0.25 kg/ha
  Preemergence herbicidal rating AMBEL: 9.0
[16]; rate 0.125 kg/ha
  Preemergence herbicidal rating CHEAL: 9.0
[16]; rate 0.25 kg/ha
  Preemergence herbicidal rating CHEAL: 9.0
[17]; rate 0.125 kg/ha
  Preemergence herbicidal rating DIGSA: 4.0
[17]; rate 0.25 kg/ha
  Preemergence herbicidal rating DIGSA: 8.0
[18]; rate 0.125 kg/ha
  Preemergence herbicidal rating ECHCG: 4.0
[18]; rate 0.25 kg/ha
  Preemergence herbicidal rating ECHCG: 7.0
[19]; rate 0.125 kg/ha
  Preemergence herbicidal rating GLXMA: 3.0
[19]; rate 0.25 kg/ha
  Preemergence herbicidal rating GLXMA: 5.0
[20]; rate 0.125 kg/ha
  Preemergence herbicidal rating IPOHE: 9.0
[20]; rate 0.25 kg/ha
  Preemergence herbicidal rating IPOHE: 9.0
[21]; rate 0.125 kg/ha
  Preemergence herbicidal rating SETVI: 5.0
[21]; rate 0.25 kg/ha
  Preemergence herbicidal rating SETVI: 7.0
[22]; rate 0.125 kg/ha
  Preemergence herbicidal rating TRZAW: 1.0
[22]; rate 0.25 kg/ha
  Preemergence herbicidal rating TRZAW: 1.0
[23]; rate 0.125 kg/ha
  Preemergence herbicidal rating XANST: 9.0
[23]; rate 0.25 kg/ha
  Preemergence herbicidal rating XANST: 9.0
[24]; rate 0.125 kg/ha
  Preemergence herbicidal rating ZEAMX: 0.0
[24]; rate 0.25 kg/ha
  Preemergence herbicidal rating ZEAMX: 1.0

## CCNS(=O)(=O)NC(=O)c1cc(-n2c(=O)cc(C(F)(F)F)n(C)c2=O)c(F)cc1Cl [Example 80]
[1]; rate 0.016 kg/ha
  Postemergence herbicidal rating ABUTH: 7.0
[1]; rate 0.032 kg/ha
  Postemergence herbicidal rating ABUTH: 9.0
[2]; rate 0.016 kg/ha
  Postemergence herbicidal rating ALMOY: 0.0
[2]; rate 0.032 kg/ha
  Postemergence herbicidal rating ALMOY: 1.0
[3]; rate 0.016 kg/ha
  Postemergence herbicidal rating AMBEL: 7.0
[3]; rate 0.032 kg/ha
  Postemergence herbicidal rating AMBEL: 8.0
[4]; rate 0.016 kg/ha
  Postemergence herbicidal rating CHEAL: 3.0
[4]; rate 0.032 kg/ha
  Postemergence herbicidal rating CHEAL: 4.0
[5]; rate 0.016 kg/ha
  Postemergence herbicidal rating DIGSA: 3.0
[5]; rate 0.032 kg/ha
  Postemergence herbicidal rating DIGSA: 4.0
[6]; rate 0.016 kg/ha
  Postemergence herbicidal rating ECHCG: 4.0
[6]; rate 0.032 kg/ha
  Postemergence herbicidal rating ECHCG: 6.0
[7]; rate 0.016 kg/ha
  Postemergence herbicidal rating GLXMA: 8.0
[7]; rate 0.032 kg/ha
  Postemergence herbicidal rating GLXMA: 8.0
[8]; rate 0.016 kg/ha
  Postemergence herbicidal rating IPOHE: 9.0
[8]; rate 0.032 kg/ha
  Postemergence herbicidal rating IPOHE: 9.0
[9]; rate 0.016 kg/ha
  Postemergence herbicidal rating SETVI: 5.0
[9]; rate 0.032 kg/ha
  Postemergence herbicidal rating SETVI: 6.0
[10]; rate 0.016 kg/ha
  Postemergence herbicidal rating TRZAW: 3.0
[10]; rate 0.032 kg/ha
  Postemergence herbicidal rating TRZAW: 4.0
[11]; rate 0.016 kg/ha
  Postemergence herbicidal rating XANST: 8.0
[11]; rate 0.032 kg/ha
  Postemergence herbicidal rating XANST: 9.0
[12]; rate 0.016 kg/ha
  Postemergence herbicidal rating ZEAMX: 1.5
[12]; rate 0.032 kg/ha
  Postemergence herbicidal rating ZEAMX: 4.0
[13]; rate 0.125 kg/ha
  Preemergence herbicidal rating ABUTH: 1.0
[13]; rate 0.25 kg/ha
  Preemergence herbicidal rating ABUTH: 5.0
[14]; rate 0.125 kg/ha
  Preemergence herbicidal rating ALMOY: 0.0
[14]; rate 0.25 kg/ha
  Preemergence herbicidal rating ALMOY: 0.0
[15]; rate 0.125 kg/ha
  Preemergence herbicidal rating AMBEL: 1.0
[15]; rate 0.25 kg/ha
  Preemergence herbicidal rating AMBEL: 3.0
[16]; rate 0.125 kg/ha
  Preemergence herbicidal rating CHEAL: 5.0
[16]; rate 0.25 kg/ha
  Preemergence herbicidal rating CHEAL: 8.0
[17]; rate 0.125 kg/ha
  Preemergence herbicidal rating DIGSA: 0.0
[17]; rate 0.25 kg/ha
  Preemergence herbicidal rating DIGSA: 1.0
[18]; rate 0.125 kg/ha
  Preemergence herbicidal rating ECHCG: 0.0
[18]; rate 0.25 kg/ha
  Preemergence herbicidal rating ECHCG: 3.0
[19]; rate 0.125 kg/ha
  Preemergence herbicidal rating GLXMA: 0.0
[19]; rate 0.25 kg/ha
  Preemergence herbicidal rating GLXMA: 0.0
[20]; rate 0.125 kg/ha
  Preemergence herbicidal rating IPOHE: 0.0
[20]; rate 0.25 kg/ha
  Preemergence herbicidal rating IPOHE: 0.0
[21]; rate 0.125 kg/ha
  Preemergence herbicidal rating SETVI: 0.0
[21]; rate 0.25 kg/ha
  Preemergence herbicidal rating SETVI: 0.0
[22]; rate 0.125 kg/ha
  Preemergence herbicidal rating TRZAW: 0.0
[22]; rate 0.25 kg/ha
  Preemergence herbicidal rating TRZAW: 0.0
[23]; rate 0.125 kg/ha
  Preemergence herbicidal rating XANST: 0.0
[23]; rate 0.25 kg/ha
  Preemergence herbicidal rating XANST: 1.0
[24]; rate 0.125 kg/ha
  Preemergence herbicidal rating ZEAMX: 0.0
[24]; rate 0.25 kg/ha
  Preemergence herbicidal rating ZEAMX: 0.0
